Reference: patent US20120309739A1, “AKT / PKB INHIBITORS” (ALMAC DISCOVERY LIMITED, priority 2009, published 2012)
pIC50: −log10 of the molar value. Counter-ions that a name gives are not always drawn.

What was measured:
AKT1 = target: T1, AKT1 (Homo sapiens, UniProt P31749); assay: AKT Kinase Assay (IMAP fluorescent polarisation) vs AKT1; assay type: biochemical; details: activated AKT1, FAM Crosstide substrate
T1 construct: purchased SignalChem
In short: (§1)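 Each activated AKT isoform, at a pre-determined linear-range concentration, was pre-incubated 45 min at room temperature with compound in a fourteen-point half-log series. ATP plus 5′FAM-Crosstide then reacted 1 h; IMAP binding reagent stopped it (1 h). Fluorescence polarisation (ex 485/em 528 nm) versus vehicle gave IC50 by non-linear regression.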

AKT2 = target: T2, AKT2 (Homo sapiens, UniProt P31751); assay: AKT Kinase Assay (IMAP fluorescent polarisation) vs AKT2; assay type: biochemical; details: activated AKT2, FAM Crosstide substrate
T2 construct: purchased SignalChem
T2 sequence (P31751 whole entry): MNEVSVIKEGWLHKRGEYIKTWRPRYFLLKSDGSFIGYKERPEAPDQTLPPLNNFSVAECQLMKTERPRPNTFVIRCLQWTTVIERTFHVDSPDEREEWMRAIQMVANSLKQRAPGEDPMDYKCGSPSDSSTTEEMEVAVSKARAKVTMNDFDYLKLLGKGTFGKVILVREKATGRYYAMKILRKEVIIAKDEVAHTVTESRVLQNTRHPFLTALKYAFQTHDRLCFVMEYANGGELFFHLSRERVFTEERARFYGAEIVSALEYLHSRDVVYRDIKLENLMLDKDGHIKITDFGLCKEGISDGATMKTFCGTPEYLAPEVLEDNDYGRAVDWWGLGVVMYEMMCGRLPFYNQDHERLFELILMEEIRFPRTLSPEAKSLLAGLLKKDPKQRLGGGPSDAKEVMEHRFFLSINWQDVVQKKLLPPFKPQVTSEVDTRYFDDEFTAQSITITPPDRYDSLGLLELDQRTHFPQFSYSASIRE
In short: as §1

AKT3 = target: T3, AKT3 (Homo sapiens, UniProt Q9Y243); assay: AKT Kinase Assay (IMAP fluorescent polarisation) vs AKT3; assay type: biochemical; details: activated AKT3, FAM Crosstide substrate
T3 construct: purchased SignalChem
T3 sequence (Q9Y243 whole entry): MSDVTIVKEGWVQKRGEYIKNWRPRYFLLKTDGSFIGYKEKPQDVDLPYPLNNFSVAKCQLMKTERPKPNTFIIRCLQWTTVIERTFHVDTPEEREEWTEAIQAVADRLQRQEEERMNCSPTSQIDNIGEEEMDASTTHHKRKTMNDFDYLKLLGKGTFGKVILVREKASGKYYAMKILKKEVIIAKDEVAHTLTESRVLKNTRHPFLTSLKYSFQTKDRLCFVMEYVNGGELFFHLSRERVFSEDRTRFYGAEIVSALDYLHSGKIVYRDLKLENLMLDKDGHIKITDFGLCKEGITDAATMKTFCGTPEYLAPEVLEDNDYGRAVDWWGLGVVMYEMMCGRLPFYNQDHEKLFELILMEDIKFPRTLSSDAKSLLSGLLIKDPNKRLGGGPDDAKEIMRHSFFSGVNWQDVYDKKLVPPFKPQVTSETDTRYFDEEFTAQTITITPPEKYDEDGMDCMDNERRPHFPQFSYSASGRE
In short: as §1

[1] = system: PC3 and/or LnCaP cell lines; assay: In vitro cell proliferation assay (Cell Titre Glo); assay type: cell-based; details: Homo sapiens, 72 hours, read-out: inhibition of proliferation IC50
Protocol: Testing of the compounds was also performed using in vitro cell proliferation assays:
Cell Titre Glo (Promega) is a highly sensitive homogeneous reagent used to determine the viability of cells. The reagent uses a stable form of luciferase to measure ATP as an output of viability. The luminescent values generated in the assay are directly proportional to the number of viable cells in your assay.
The following materials were used: White, clear bottomed 96 well assay plates (Costar); Cell titre Glo reagents; LnCaP (ECACC) cells grown in RPMI medium (Invitrogen) supplemented with 10 mM HEPES (Invitrogen), 1 mM Sodium pyruvate (Invitrogen), 2 mM L-Glutamine (Invitrogen) and 10% Foetal calf serum (Invitrogen); PC3 (ECACC) cells grown in RPMI medium supplemented with 10% Foetal calf serum (Invitrogen); Trypsin (Invitrogen); PBS (Invitrogen); Biotek Synergy 4 Hybrid Plate reader; 96 well plate shaker (Stuart SSL5); Eppendorf 5414 desk-top centrifuge; Beckman Coulter cell counter Z1 single threshold system.
Prostate cell lines, PC3 and LnCaP, were washed, detached and re-suspended in their respective fresh media. The cells were pelleted by centrifugation (Eppendorf 5414) and spent supernatant discarded. The cells were re-suspended by vortex mixing, counted and seeded into clear bottom white 96 well plates at a density of 5000 cells per well. The cells were incubated (Sanyo) overnight at 37° C. ([…]/5% CO2), and next day treated with increasing concentrations of test compound formulated in fresh medium. The plates were returned to the incubator for 72 hours.
Cell Titre Glo (Promega) was prepared by mixing the supplied reagents as per manufacturer's instructions and left to stand at room temperature. The cell plates were removed from the incubator and 80 μl of the Cell Titre Glo solution added to each well. The plate was shaken for five minutes to ensure homogenous mixing of reagents and cells, then left to stand for ten minutes at room temperature.
The cell viability post compound treatment was determined by the luminescent intensity emitted from the drug treated wells in the plate. In brief, the assay plate was placed in the Biotex Synergy 4 Hybrid plate reader and the luminescence read in each well. The compound treated wells were compared to vehicle treated wells and the % inhibition of cell viability calculated.
The data was analysed using GraphPad Prism, with IC50 values generated using non-linear regression of the data set.

T1 sequence (P31749 whole entry): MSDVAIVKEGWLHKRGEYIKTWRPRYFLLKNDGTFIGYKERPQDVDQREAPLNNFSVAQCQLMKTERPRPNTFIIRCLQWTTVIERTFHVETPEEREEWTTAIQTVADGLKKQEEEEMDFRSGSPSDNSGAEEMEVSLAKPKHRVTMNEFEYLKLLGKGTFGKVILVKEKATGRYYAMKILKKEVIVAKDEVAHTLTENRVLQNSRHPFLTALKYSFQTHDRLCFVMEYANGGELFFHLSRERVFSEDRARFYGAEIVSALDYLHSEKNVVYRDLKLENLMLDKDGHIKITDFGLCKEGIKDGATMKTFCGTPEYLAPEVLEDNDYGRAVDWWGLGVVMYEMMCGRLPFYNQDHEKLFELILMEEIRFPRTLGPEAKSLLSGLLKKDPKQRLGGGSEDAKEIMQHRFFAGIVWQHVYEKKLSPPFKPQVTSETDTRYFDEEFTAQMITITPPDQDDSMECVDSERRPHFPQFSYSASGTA

| SMILES | pIC50 (AKT1) | pIC50 (AKT2) | pIC50 (AKT3) | pIC50 [1] |
| --- | --- | --- | --- | --- |
| CC(C)n1cnc2oc(-c3ccc(C4(N)CCC4)cc3)c(-c3ccccc3)c2c1=O [Example 107, 6-(4-(1-Aminocyclobutyl)phenyl)-3-isopropyl-5-phenylfuro[2,3-d]pyrimidin-4(3H)-one, HCl] | 5.00 to 6.00 | 6.00 to 7.00 | 5.00 to 6.00 | – |
| CN(C)c1nc(NCCO)nc2oc(-c3ccc(C4(N)CCC4)cc3)c(-c3ccccc3)c12 [Example 70, 2-(6-(4-(1-Aminocyclobutyl)phenyl)-4-(dimethylamino)-5-phenylfuro[2,3-d]pyrimidin-2-ylamino)ethanol, HCl] | 5.00 to 6.00 | 5.00 to 6.00 | < 5.00 | – |
| NC1(c2ccc(-c3oc4ccnc(-c5cn[nH]c5)c4c3-c3ccccc3)cc2)CCC1 [Example 133, 1-(4-(3-Phenyl-4-(1H-pyrazol-4-yl)furo[3,2-c]pyridin-2-yl)phenyl)cyclobutanamine] | 5.00 to 6.00 | 5.00 to 6.00 | < 5.00 | – |
| NC1(c2ccc(-c3oc4ncc(-c5ccccc5)nc4c3-c3ccccc3)cc2)CCC1 [Example 139, 1-(4-(2,7-Diphenylfuro[2,3-b]pyrazin-6-yl)phenyl)cyclobutanamine, HCl] | 5.00 to 6.00 | 5.00 to 6.00 | 5.00 to 6.00 | – |
| NC1(c2ccc(-c3oc4ccn(CCF)c(=O)c4c3-c3ccccc3)cc2)CCC1 [Example 91, 2-(4-(1-Aminocyclobutyl)phenyl)-5-(2-fluoroethyl)-3-phenylfuro[3,2-c]pyridin-4(5H)-one] | 5.00 to 6.00 | 5.00 to 6.00 | < 5.00 | – |
| CC(=O)Nc1cccc(-c2cnc3oc(-c4ccc(C5(N)CCC5)cc4)c(-c4ccccc4)c3n2)c1 [Example 151, N-(3-(6-(4-(1-Aminocyclobutyl)phenyl)-7-phenylfuro[2,3-b]pyrazin-2-yl)phenyl)acetamide, HCl] | 5.00 to 6.00 | 5.00 to 6.00 | < 5.00 | – |
| NC1CCN(c2ncc3c(-c4ccccc4)c(-c4ccc(C5(N)CCC5)cc4)oc3n2)CC1 [Example 50, 1-(6-(4-(1-Aminocyclobutyl)phenyl)-5-phenylfuro[2,3-d]pyrimidin-2-yl)piperidin-4-amine] | 5.00 to 6.00 | 6.00 to 7.00 | < 5.00 | – |
| NC1(c2ccc(-c3oc4nc(NCCO)n(CCF)c(=O)c4c3-c3ccccc3)cc2)CCC1 [Example 110, 6-(4-(1-Aminocyclobutyl)phenyl)-3-(2-fluoroethyl)-2-(2-hydroxyethylamino)-5-phenylfuro[2,3-d]pyrimidin-4(3H)-one] | 5.00 to 6.00 | ≥ 7.00 | 5.00 to 6.00 | – |
| CNC(=O)CNc1nc2oc(-c3ccc(C4(N)CCC4)cc3)c(-c3ccccc3)c2c(=O)n1C [Example 60, 2-((6-(4-(1-Aminocyclobutyl)phenyl)-3-methyl-4-oxo-5-phenyl-3,4-dihydrofuro[2,3-d]pyrimidin-2-yl)amino)-N-methylacetamide hydrochloride] | 5.00 to 6.00 | 6.00 to 7.00 | < 5.00 | – |
| CNc1nc2oc(-c3ccc(C4(N)CCC4)cc3)c(-c3ccccc3)c2c(=O)n1C [Example 65, 6-(4-(1-Aminocyclobutyl)phenyl)-3-methyl-2-(methylamino)-5-phenylfuro[2,3-d]pyrimidin-4(3H)-one hydrochloride] | 6.00 to 7.00 | 6.00 to 7.00 | 5.00 to 6.00 | – |
| COCCn1cnc2oc(-c3ccc(C4(N)CCC4)cc3)c(-c3ccccc3)c2c1=O [Example 105, 6-(4-(1-Aminocyclobutyl)phenyl)-3-(2-methoxyethyl)-5-phenylfuro[2,3-d]pyrimidin-4(3H)-one, HCl] | 5.00 to 6.00 | 6.00 to 7.00 | 5.00 to 6.00 | – |

Other lines, results leading:

| pIC50 (AKT1) | pIC50 (AKT2) | pIC50 (AKT3) | pIC50 [1] | SMILES |
| --- | --- | --- | --- | --- |
| ≥ 7.00 | 6.00 to 7.00 | < 5.00 | > 5.00 | CNc1nc(OC)c2c(-c3ccccc3)c(-c3ccc(C4(N)CCC4)cc3)oc2n1 [Example 32, 6-(4-(1-Aminocyclobutyl)phenyl)-4-methoxy-N-methyl-5-phenylfuro[2,3-d]pyrimidin-2-amine] |
| 6.00 to 7.00 | 6.00 to 7.00 | 6.00 to 7.00 | – | CCOc1nc(N2CCNCC2)nc2oc(-c3ccc(C4(N)CCC4)cc3)c(-c3ccccc3)c12 [Example 46, 1-(4-(4-Ethoxy-5-phenyl-2-(piperazin-14)furo[2,3-d]pyrimidin-6-yl)phenyl)cyclobutanamine, HCl] |
| 6.00 to 7.00 | 6.00 to 7.00 | < 5.00 | – | NC1(c2ccc(-c3oc4nc(NCCO)nc(NCCO)c4c3-c3ccccc3)cc2)CCC1 [Example 77, 2,2′-((6-(4-(1-Aminocyclobutyl)phenyl)-5-phenylfuro[2,3-d]pyrimidine-2,4-diyl)bis(azanediyl))diethanol] |
| 6.00 to 7.00 | 5.00 to 6.00 | < 5.00 | – | NC1(c2ccc(-c3oc4ncc(NCCO)nc4c3-c3ccccc3)cc2)CCC1 [Example 148, 2-(6-(4-(1-Aminocyclobutyl)phenyl)-7-phenylfuro[2,3-b]pyrazin-2-ylamino)ethanol] |
| 6.00 to 7.00 | 6.00 to 7.00 | 5.00 to 6.00 | – | N#CCn1cnc2oc(-c3ccc(C4(N)CCC4)cc3)c(-c3ccccc3)c2c1=O [Example 101, 2-(6-(4-(1-Aminocyclobutyl)phenyl)-4-oxo-5-phenylfuro[2,3-d]pyrimidin-3(4H)-yl)acetonitrile] |
| 6.00 to 7.00 | 6.00 to 7.00 | 5.00 to 6.00 | – | Cn1cc(C(N)=O)c2oc(-c3ccc(C4(N)CCC4)cc3)c(-c3ccccc3)c2c1=O [Example 117, 2-(4-(1-Aminocyclobutyl)phenyl)-5-methyl-4-oxo-3-phenyl-4,5-dihydrofuro[3,2-c]pyridine-7-carboxamide] |
| 6.00 to 7.00 | ≥ 7.00 | 5.00 to 6.00 | – | CCNc1nc2oc(-c3ccc(C4(N)CCC4)cc3)c(-c3ccccc3)c2c(=O)n1C [Example 88, 6-(4-(1-Aminocyclobutyl)phenyl)-2-(ethylamino)-3-methyl-5-phenylfuro[2,3-d]pyrimidin-4(3H)-one, HCl] |
| 6.00 to 7.00 | 6.00 to 7.00 | 5.00 to 6.00 | – | Cn1c(N2CC(O)C2)nc2oc(-c3ccc(C4(N)CCC4)cc3)c(-c3ccccc3)c2c1=O [Example 61, 6-(4-(1-Aminocyclobutyl)phenyl)-2-(3-hydroxyazetidin-1-yl)-3-methyl-5-phenylfuro[2,3-d]pyrimidin-4(3H)-one] |
| 6.00 to 7.00 | 6.00 to 7.00 | 5.00 to 6.00 | – | COc1nc(N2CCN(CCN(C)C)CC2)nc2oc(-c3ccc(C4(N)CCC4)cc3)c(-c3ccccc3)c12 [Example 33, 1-(4-(2-(4-(2-(Dimethylamino)ethyl)piperazin-1-yl)-4-methoxy-5-phenylfuro[2,3-d]pyrimidin-6-yl)phenyl)cyclobutanamine] |
| 6.00 to 7.00 | ≥ 7.00 | 5.00 to 6.00 | – | Cn1c(OCCO)nc2oc(-c3ccc(C4(N)CCC4)cc3)c(-c3ccccc3)c2c1=O [Example 85, 6-(4-(1-Aminocyclobutyl)phenyl)-2-(2-hydroxyethoxy)-3-methyl-5-phenylfuro[2,3-d]pyrimidin-4(3H)-one, HCl] |
| ≥ 7.00 | 6.00 to 7.00 | 5.00 to 6.00 | – | COC(=O)c1cn(C)c(=O)c2c(-c3ccccc3)c(-c3ccc(C4(N)CCC4)cc3)oc12 [Example 118, Methyl 2-(4-(1-aminocyclobutyl)phenyl)-5-methyl-4-oxo-3-phenyl-4,5-dihydrofuro[3,2-c]pyridine-7-carboxylate] |
| 6.00 to 7.00 | 5.00 to 6.00 | 5.00 to 6.00 | – | Cn1c(N2CCOCC2)nc2oc(-c3ccc(C4(N)CCC4)cc3)c(-c3ccccc3)c2c1=O [Example 82, 6-(4-(1-Aminocyclobutyl)phenyl)-3-methyl-2-morpholino-5-phenylfuro[2,3-d]pyrimidin-4(3H)-one] |
| ≥ 7.00 | ≥ 7.00 | 5.00 to 6.00 | – | CSc1nc2oc(-c3ccc(C4(N)CCC4)cc3)c(-c3ccccc3)c2c(=O)n1CC#N [Example 96, 2-(6-(4-(1-Aminocyclobutyl)phenyl)-2-(methylthio)-4-oxo-5-phenylfuro[2,3-d]pyrimidin-3(4H)-yl)acetonitrile] |
